# Source: ChEMBL document CHEMBL1201862, “PubChem BioAssay data set” (2004)
#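 Assay format: 96-well plates, 48-hour exposure. GI50 is the concentration that inhibits growth by half.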 The source made the active and inactive calls. No stated cut-off is given here; in the data, active = GI50 up to about 1.1 µM and inactive = higher.
# Assays:
# Assay in all cases: NCI tumour cell line growth inhibition, 48 h
# [1] = tested on: MOLT-4
# [2] = tested on: IGROV-1
# [3] = tested on: SK-MEL-5
# [4] = tested on: SK-OV-3
# [5] = tested on: CAKI-1
# [6] = tested on: M14
# [7] = tested on: HOP-62
# [8] = tested on: UACC-257
# [9] = tested on: NCI-H226
# [10] = tested on: UO-31
# [11] = tested on: HCT-116
# [12] = tested on: NCI-H460
# [13] = tested on: CCRF-CEM
# [14] = tested on: OVCAR-5
# [15] = tested on: RXF 393
# [16] = tested on: EKVX
# [17] = tested on: HT-29
# [18] = tested on: HOP-92
# [19] = tested on: SN12C
# [20] = tested on: SK-MEL-28
# [21] = tested on: NCI/ADR-RES
# [22] = tested on: MDA-MB-231
# [23] = tested on: A498
# [24] = tested on: OVCAR-4
# [25] = tested on: RPMI-8226
# [26] = tested on: UACC-62
# [27] = tested on: HCC 2998
# [28] = tested on: SF-539
# [29] = tested on: T47D
# [30] = tested on: U-251
# [31] = tested on: LOX IMVI
# [32] = tested on: SK-MEL-2
# [33] = tested on: NCI-H522
# [34] = tested on: TK-10
# [35] = tested on: SNB-75
# [36] = tested on: HL-60
# [37] = tested on: SW-620
# [38] = tested on: MCF7
# [39] = tested on: KM12
# [40] = tested on: HCT-15
# [41] = tested on: Malme-3M
# [42] = tested on: NCI-H23
# [43] = tested on: SF-295
# [44] = tested on: ACHN
# [45] = tested on: BT-549
# [46] = tested on: OVCAR-3
# [47] = tested on: DU-145
# [48] = tested on: MDA-MB-435
# [49] = tested on: Hs-578T
# [50] = tested on: COLO 205
# [51] = tested on: SNB-19
# [52] = tested on: OVCAR-8
# [53] = tested on: A549
# [54] = tested on: SF-268
# [55] = tested on: K562
# [56] = tested on: MDA-N
# [57] = tested on: PC-3
# [58] = tested on: 786-0
smiles,measurement,setting,value
COC(=O)C1=CSC2(S1)C(C(=O)OC)=CSc1c2ssc1=O (centres undefined),GI50,[1],1.97 µM (inactive)
same,GI50,[2],1.66 µM (inactive)
same,GI50,[3],2.24 µM (inactive)
same,GI50,[4],9.42 µM (inactive)
same,GI50,[5],2.11 µM (inactive)
same,GI50,[6],2.5 µM (inactive)
same,GI50,[7],3.06 µM (inactive)
same,GI50,[8],1.87 µM (inactive)
same,GI50,[9],22.7 µM (inactive)
same,GI50,[10],1.84 µM (inactive)
same,GI50,[11],1.61 µM (inactive)
same,GI50,[12],6.15 µM (inactive)
same,GI50,[13],0.762 µM (active)
same,GI50,[14],8.15 µM (inactive)
same,GI50,[15],1.92 µM (inactive)
same,GI50,[16],5.98 µM (inactive)
same,GI50,[17],1.81 µM (inactive)
same,GI50,[18],2.07 µM (inactive)
same,GI50,[19],2.12 µM (inactive)
same,GI50,[20],1.97 µM (inactive)
same,GI50,[21],2.87 µM (inactive)
same,GI50,[22],1.85 µM (inactive)
same,GI50,[23],6.28 µM (inactive)
same,GI50,[24],1.15 µM (inactive)
same,GI50,[25],1.55 µM (inactive)
same,GI50,[26],1.96 µM (inactive)
same,GI50,[27],3.01 µM (inactive)
same,GI50,[28],1.57 µM (inactive)
same,GI50,[29],2.14 µM (inactive)
same,GI50,[30],1.54 µM (inactive)
same,GI50,[31],1.64 µM (inactive)
same,GI50,[32],1.96 µM (inactive)
same,GI50,[33],1.49 µM (inactive)
same,GI50,[34],2.42 µM (inactive)
same,GI50,[35],3.22 µM (inactive)
same,GI50,[36],1.6 µM (inactive)
same,GI50,[37],1.33 µM (inactive)
same,GI50,[38],1.75 µM (inactive)
same,GI50,[39],3.9 µM (inactive)
same,GI50,[40],1.54 µM
same,GI50,[41],2 µM (inactive)
same,GI50,[42],2 µM (inactive)
same,GI50,[43],16.3 µM (inactive)
same,GI50,[44],1.87 µM (inactive)
same,GI50,[45],2.7 µM (inactive)
same,GI50,[46],1.81 µM (inactive)
same,GI50,[47],1.73 µM (inactive)
same,GI50,[48],1.72 µM (inactive)
same,GI50,[49],2.36 µM (inactive)
same,GI50,[50],1.87 µM (inactive)
same,GI50,[51],6.05 µM (inactive)
same,GI50,[52],2.34 µM (inactive)
same,GI50,[53],7.43 µM (inactive)
same,GI50,[54],2.69 µM (inactive)
same,GI50,[55],1.95 µM (inactive)
same,GI50,[56],2.13 µM (inactive)
same,GI50,[57],2.22 µM (inactive)
same,GI50,[58],1.57 µM (inactive)
CNC(=O)CNC(=O)CCC(=O)N(C)C,GI50,[1],> 100 µM (inactive)
same,GI50,[2],> 100 µM (inactive)
same,GI50,[3],> 100 µM (inactive)
same,GI50,[4],> 100 µM (inactive)
same,GI50,[5],> 100 µM (inactive)
same,GI50,[6],> 100 µM (inactive)
same,GI50,[7],> 100 µM (inactive)
same,GI50,[8],> 100 µM (inactive)
same,GI50,[9],> 100 µM (inactive)
same,GI50,[10],> 100 µM (inactive)
same,GI50,[11],> 100 µM (inactive)
same,GI50,[12],> 100 µM (inactive)
same,GI50,[13],> 100 µM (inactive)
same,GI50,[14],> 100 µM (inactive)
same,GI50,[16],> 100 µM (inactive)
same,GI50,[17],> 100 µM (inactive)
same,GI50,[18],> 100 µM (inactive)
same,GI50,[19],> 100 µM (inactive)
same,GI50,[20],> 100 µM (inactive)
same,GI50,[21],> 100 µM (inactive)
same,GI50,[22],> 100 µM (inactive)
same,GI50,[23],> 100 µM (inactive)
same,GI50,[25],> 100 µM (inactive)
same,GI50,[26],> 100 µM (inactive)
same,GI50,[27],> 100 µM (inactive)
same,GI50,[28],> 100 µM (inactive)
same,GI50,[29],> 100 µM (inactive)
same,GI50,[30],> 100 µM (inactive)
same,GI50,[31],> 100 µM (inactive)
same,GI50,[32],> 100 µM (inactive)
same,GI50,[33],> 100 µM (inactive)
same,GI50,[34],> 100 µM (inactive)
same,GI50,[35],> 100 µM (inactive)
same,GI50,[36],> 100 µM (inactive)
same,GI50,[37],> 100 µM (inactive)
same,GI50,[38],> 100 µM (inactive)
same,GI50,[39],> 100 µM (inactive)
same,GI50,[40],> 100 µM
same,GI50,[41],> 100 µM (inactive)
same,GI50,[42],> 100 µM (inactive)
same,GI50,[43],> 100 µM (inactive)
same,GI50,[44],> 100 µM (inactive)
same,GI50,[45],> 100 µM (inactive)
same,GI50,[46],> 100 µM (inactive)
same,GI50,[47],> 100 µM (inactive)
same,GI50,[48],> 100 µM (inactive)
same,GI50,[49],> 100 µM (inactive)
same,GI50,[50],> 100 µM (inactive)
same,GI50,[51],> 100 µM (inactive)
same,GI50,[52],> 100 µM (inactive)
same,GI50,[53],> 100 µM (inactive)
same,GI50,[54],> 100 µM (inactive)
same,GI50,[55],> 100 µM (inactive)
same,GI50,[56],> 100 µM (inactive)
same,GI50,[57],> 100 µM (inactive)
same,GI50,[58],> 100 µM (inactive)
CN1C/C(=C\c2cccs2)C(O)/C(=C/c2cccs2)C1 (centres undefined),GI50,[1],25.2 µM (inactive)
same,GI50,[2],53 µM (inactive)
same,GI50,[3],> 100 µM (inactive)
same,GI50,[4],> 100 µM (inactive)
same,GI50,[5],97.5 µM (inactive)
same,GI50,[6],> 100 µM (inactive)
same,GI50,[7],> 100 µM (inactive)
same,GI50,[8],89.5 µM (inactive)
same,GI50,[9],> 100 µM (inactive)
same,GI50,[10],97.3 µM (inactive)
same,GI50,[11],72.4 µM (inactive)
same,GI50,[12],> 100 µM (inactive)
same,GI50,[13],27 µM (inactive)
same,GI50,[14],> 100 µM (inactive)
same,GI50,[15],> 100 µM (inactive)
same,GI50,[16],> 100 µM (inactive)
same,GI50,[17],> 100 µM (inactive)
same,GI50,[18],20.4 µM (inactive)
same,GI50,[19],74.5 µM (inactive)
same,GI50,[20],> 100 µM (inactive)
same,GI50,[21],> 100 µM (inactive)
same,GI50,[22],> 100 µM (inactive)
same,GI50,[23],> 100 µM (inactive)
same,GI50,[24],35.5 µM (inactive)
same,GI50,[25],20.2 µM (inactive)
same,GI50,[26],> 100 µM (inactive)
same,GI50,[27],41.1 µM (inactive)
same,GI50,[29],25.8 µM (inactive)
same,GI50,[30],> 100 µM (inactive)
same,GI50,[31],> 100 µM (inactive)
same,GI50,[32],> 100 µM (inactive)
same,GI50,[33],35.1 µM (inactive)
same,GI50,[34],> 100 µM (inactive)
same,GI50,[37],> 100 µM (inactive)
same,GI50,[38],48.5 µM (inactive)
same,GI50,[39],> 100 µM (inactive)
same,GI50,[40],> 100 µM
same,GI50,[41],50.1 µM (inactive)
same,GI50,[42],> 100 µM (inactive)
same,GI50,[43],> 100 µM (inactive)
same,GI50,[44],> 100 µM (inactive)
same,GI50,[45],> 100 µM (inactive)
same,GI50,[46],> 100 µM (inactive)
same,GI50,[47],> 100 µM (inactive)
same,GI50,[48],> 100 µM (inactive)
same,GI50,[49],> 100 µM (inactive)
same,GI50,[50],87.1 µM (inactive)
same,GI50,[51],> 100 µM (inactive)
same,GI50,[52],> 100 µM (inactive)
same,GI50,[53],> 100 µM (inactive)
same,GI50,[54],> 100 µM (inactive)
same,GI50,[55],57.8 µM (inactive)
same,GI50,[56],> 100 µM (inactive)
same,GI50,[57],> 100 µM (inactive)
same,GI50,[58],> 100 µM (inactive)
